In patent US12558342B2, “2-[2-({12,12-dimethyl-4-oxo-6-phenyl-3,11-dioxatricyclo[8.4.0.0,2,7]tetradeca-1,5,7,9-tetraen-8-yl}oxy)acetamido]benzamide and derivatives as inhibitor of clock:bmal1 interaction for the treatment of circadian rhythm diseases and disorders” (KOC UNIVERSITESI, priority 2019, dated 2026):

Key:
Bmal1, Clock, and Cry1 = assay: In vivo study in mouse liver, qPCR; conditions: 25 mg/kg i.p., 6 h
Method: Male C57BL/6J mice, 8 weeks of age, weighing 18-24 g were treated with two different single doses of CLK8 (25 mg/kg n=5 per each dose) intraperitoneally. Control mice (n=3) were only treated with vehicle (DMSO:Cremophor EL: 0.9% NaCl; 2.5:15:82.5, v/v, i.p.). Water and food were provided ad libitum throughout the experiments. Six hours after injection, mice were sacrificed by cervical dislocation. Liver tissues were removed, frozen in liquid nitrogen and stored at −80° C. until further processing.

BMAL1 = target: T1, BMAL1 (Mus musculus, UniProt Q9WTL8); assay: LC-MS/MS of pull-down precipitates, BMAL1; format: binding; conditions: Competitor 0 μM
T1 construct: expressed in transfected cells; host or cells: HEK 293T
T1 sequence (Q9WTL8 whole entry): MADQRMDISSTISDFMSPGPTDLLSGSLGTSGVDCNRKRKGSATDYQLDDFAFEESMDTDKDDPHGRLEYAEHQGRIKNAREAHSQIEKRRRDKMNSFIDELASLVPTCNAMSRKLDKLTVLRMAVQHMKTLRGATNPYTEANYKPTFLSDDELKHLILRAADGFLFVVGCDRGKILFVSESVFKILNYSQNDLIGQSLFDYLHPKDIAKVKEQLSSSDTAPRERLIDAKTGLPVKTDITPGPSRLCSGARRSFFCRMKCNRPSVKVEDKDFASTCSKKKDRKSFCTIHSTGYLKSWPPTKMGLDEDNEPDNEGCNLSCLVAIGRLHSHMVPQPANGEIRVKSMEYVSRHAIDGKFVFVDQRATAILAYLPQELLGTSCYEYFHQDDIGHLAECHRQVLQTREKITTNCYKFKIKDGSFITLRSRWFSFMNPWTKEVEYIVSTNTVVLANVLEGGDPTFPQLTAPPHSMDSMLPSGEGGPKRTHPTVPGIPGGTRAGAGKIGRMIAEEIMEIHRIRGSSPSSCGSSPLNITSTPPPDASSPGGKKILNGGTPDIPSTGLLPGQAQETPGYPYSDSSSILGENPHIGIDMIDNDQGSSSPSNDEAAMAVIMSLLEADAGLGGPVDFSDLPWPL
Method: HEK293T cells were transiently transfected with tag-free hsClock and mBmal1. After 48 hours of transfection, cells were harvested and whole cell lysate was prepared with ice-cold lysis buffer (50 mM Tris-HCl pH 7.4, 2 mM EDTA, 1 mM MgCl2, 0.2% NP-40, 1 mM sodium orthovanadate, 1 mM sodium fluoride and protease inhibitor cocktail) followed by centrifugation at 7000×g at 4° C. for 10 minutes. Lysate was diluted with ice-cold 2× binding buffer (100 mM Tris-HCl pH 7.4, 300 mM NaCl, 0.2% NP-40, 2 mM sodium orthovanadate, 2 mM sodium fluoride, and protease inhibitor cocktail) 27. The lysate was divided into three fractions to be treated with either DMSO, or 20 μM of bitoinylated-CLK8 (bait) with or without 200 μM CLK8 (competitor). […]
The next step was to check for off-targets of CLK8. […] Since the amount of precipitated endogenous CLOCK was insufficient to be detected in LC-MS/MS, whole cell lysate of HEK 293T cells overexpressing CLOCK and BMAL1 were used for LC-MS/MS. We determined proteins that potentially bind to CLK8 by utilizing a minimum threshold for peptide spectrum matches and coverage equal to those of the main target, CLOCK. We also excluded proteins that have been detected in negative controls of the CRAPome database (32), assuming them as abundant sticky proteins. […] BMAL1 was detected in lower amounts when a competitor was present. […]

[1] = test system: wild type MDA MB231 cells; assay: Bmal1::dluc rhythm in wild type MDA MB231 cells; format: cell-based
Method: We used Bmal1::dluc U2-OS and Per1::dluc NIH 3T3, and continuously monitored the bioluminescence to record circadian rhythm. This experiment was performed in 96-well plates (triplicates) and 35-mm dishes (duplicates) in the secondary screen and detailed characterization steps respectively. Briefly, cells were seeded to reach confluency. A day after, the medium was replaced with DMEM containing 0.1 μM Dexamethasone to synchronize cells. […] The 96-well plates were covered and bioluminescence was monitored by Synergy H1 Hybrid Multi-Mode Reader every 32 minutes. […] Bioluminescence was recorded every 10 minutes for 4-6 days. […] The first day's data was excluded from the analysis due to transient perturbations of luminescence after the medium change.
HEK 293T cells at 75-85% confluency were transfected with […] of pLV6-Bmal-luc plasmid, 9 ng of pCMV-AR8.2dvpr packaging vector and 1 ng of pCMV-VSVG envelope vector for 16 h. […] At 72-hour post-transduction, the circadian rhythms of cells monitored using Lumicycle.
We used Bmal1::dluc U2-OS and Per1::dluc NIH 3T3, and continuously monitored the bioluminescence to record circadian rhythm. […] The 96-well plates were covered and bioluminescence was monitored by Synergy H1 Hybrid Multi-Mode Reader every 32 minutes. […] Bioluminescence was recorded every 10 minutes for 4-6 days. […]

- Peptide spectrum matches, BMAL1 (BMAL1): 56
SMILES: CC1(C)CCc2c(cc(OCC(=O)Nc3ccccc3C(N)=O)c3c(-c4ccccc4)cc(=O)oc23)O1 [CLK8, 2-[2-({12,12-dimethyl-4-oxo-6-phenyl-3,11-dioxatricyclo [8.4.0.0,2,7]tetradeca-1,5,7,9-tetraen-8-yl}oxy)acetamido] benzamide]
- Cry1 gene's transcriptional level (liver) (Bmal1, Clock, and Cry1): significantly changed
- amplitude of circadian rhythm [1]: enhance amplitude
